Test results from US10251871B2, “Compositions and methods for treatment of edema” (Memorial Sloan Kettering Cancer Center, priority 2015, dated 2019).

What was measured:
[1] = system: mouse tail model of lymphedema; test: Mouse tail model of lymphedema (tail volume, histology, immunostaining, lymphoscintigraphy, NIR imaging, PCR, ELISA); type: in vivo, C57BL/6J mice
[2] = system: corneal lymphatic and blood vessels; test: Corneal lymphangiogenesis assay (suture placement); type: in vivo, mice; details: systemic tacrolimus 4 mg kg^−1 IP daily for 2 weeks after suture placement, vs vehicle
Excerpt: To determine the lymphangiogenic effects of tacrolimus in other inflammatory and wound models in which drainage of lymphatic fluid is not obstructed surgically, we next used two other models of inflammatory lymphangiogenesis. The cornea is a useful tissue for studying lymphangiogenesis because it is normally devoid of both blood and lymphatic vessels but develops both in the setting of inflammation. Cursiefen et al., J. Clin. Invest. 113:1040-1050 (2004). […] A corneal lymphangiogenesis assay was performed as previously reported. Cursiefen et al., Cornea 25:443-447 (2006). Briefly, 10-0 nylon sutures (Ethicon, Cincinnati, Ohio) were placed in the cornea at […]. Beginning immediately after suture placement, animals were treated with systemic tacrolimus or vehicle control daily for two weeks, followed by analysis using confocal microscopy (Leica Microsystems, Weitziar, Germany). […] Cutaneous lymphangiogenesis was assessed using an ear punch wound model as previously reported. […] Tile-scan images were obtained using a confocal microscope (Leica Microsystems, Weitziar, Germany) and skin within 400 μm of the wound edge was analyzed using Metamorph software (Molecular Devices, Sunnyvale, Calif.). Standardized (200 μm×200 μm) fields were analyzed for the number of branch points present per unit area by two blinded reviewers.

[3] = system: ear skin lymphatic vessels (LYVE-1+); test: Ear punch wound model of cutaneous lymphangiogenesis; type: in vivo, mice; details: topical tacrolimus for 4 weeks, vs control ointment
Excerpt: We also studied lymphangiogenesis during wound healing using an ear punch wound model and applying topical tacrolimus or control ointment for 4 weeks. […] To test the possibility of direct lymphangiogenic effects of tacrolimus, we applied tacrolimus to unwounded mouse ears for 4 weeks, and then performed whole mount confocal imaging of lymphatic vessels. We observed no increase in lymphangiogenesis in this uninjured, non-inflamed setting (FIG. 16). […] A corneal lymphangiogenesis assay was performed as previously reported. Cursiefen et al., Cornea 25:443-447 (2006). Briefly, 10-0 nylon sutures (Ethicon, Cincinnati, Ohio) were placed in the cornea at […]. Beginning immediately after suture placement, animals were treated with systemic tacrolimus or vehicle control daily for two weeks, followed by analysis using confocal microscopy (Leica Microsystems, Weitziar, Germany). […] Cutaneous lymphangiogenesis was assessed using an ear punch wound model as previously reported. […] Tile-scan images were obtained using a confocal microscope (Leica Microsystems, Weitziar, Germany) and skin within 400 μm of the wound edge was analyzed using Metamorph software (Molecular Devices, Sunnyvale, Calif.). Standardized (200 μm×200 μm) fields were analyzed for the number of branch points present per unit area by two blinded reviewers.

[4] = topical 0.1% tacrolimus twice daily, early treatment (from 2 weeks after surgery for 4 weeks), vs vehicle control
[5] = topical 0.1% tacrolimus twice daily, late treatment (from 6 weeks after surgery for 3 weeks), vs vehicle control
[6] = topical 0.1% tacrolimus, early and late treatment, vs control
[7] = topical 0.1% tacrolimus, early treatment, qPCR 6 weeks after injury, vs control
[8] = topical 0.1% tacrolimus, early treatment, vs control
[9] = topical 0.1% tacrolimus, late treatment, vs control

## C=CC[C@@H]1/C=C(\C)C[C@H](C)C[C@H](OC)[C@H]2O[C@@](O)(C(=O)C(=O)N3CCCC[C@H]3C(=O)O[C@H](/C(C)=C/[C@@H]3CC[C@@H](O)[C@H](OC)C3)[C@H](C)[C@@H](O)CC1=O)[C@H](C)C[C@@H]2OC [tacrolimus]
[1]; [4]
  decrease in soft tissue thickness: ~50%
  decrease in tail volume: 95%
[1]; [5]
  soft tissue thickness: highly effective in decreasing
  tail volume: highly effective in decreasing
[1]; [6]
  Scar index (picrosirius red, ratio of collagen I/III): markedly decreased
  cellular expression of phosphorylated SMAD3 (pSMAD-3): markedly decreased
  dermal and subcutaneous type I collagen deposition: markedly decreased
  expression of TGF-β1 (immunofluorescence): markedly decreased
[1]; topical 0.1% tacrolimus, early treatment, 6 weeks after lymphatic ligation
  NIR (ICG) imaging: transport across the tail wound: rapid transport of interstitial fluid proximally across the tail wound
[1]; [7]
  IFN-γ mRNA expression in tail tissue: significant decrease
  TGF-β1 mRNA expression in tail tissue: significant decrease
  VEGF-C mRNA expression in tail tissue: no differences
[1]; [8]
  increase in decay adjusted 99mTc uptake of the sacral lymph nodes: more than 6 fold
  increase in newly formed lymphatic vessels (LYVE-1) bridging the zone of lymphatic injury: 189%
  reduction of CD45+ cells (leukocytes) infiltrating dermis and subcutaneous fat: 56%
  reduction of IFN-γ-producing cells: 54%
  reduction of infiltrating CD3+ cells: 53%
  reduction of infiltrating CD4+ cells: 78%
  reduction of soft tissue infiltration of macrophages (F4/80+ cells): 86%
[1]; [9]
  increase in newly formed lymphatic vessels (LYVE-1) bridging the zone of lymphatic injury: 106%
  reduction of CD45+ cells (leukocytes) infiltrating dermis and subcutaneous fat: 49%
  reduction of IFN-γ-producing cells: 57%
  reduction of infiltrating CD3+ cells: 49%
  reduction of infiltrating CD4+ cells: 71%
  reduction of soft tissue infiltration of macrophages (F4/80+ cells): 73%
[1]; topical 0.1% tacrolimus, late treatment, vs control, did not reach statistical significance
  increase in 99mTc nodal uptake: 2 fold
[2]
  increase in proliferation of corneal lymphatic vessels (LYVE-1+): 48%
[3]
  lymphatic vessel branching in ear skin adjacent to the wound: significantly increased
  lymphatic vessel density in ear skin adjacent to the wound: significantly increased
